The record followed here is patent US20190388377A1, “COMPOSITIONS AND METHODS FOR THE TREATMENT OF LIVER DISEASES AND DISORDERS” (AXCELLA HEALTH INC., priority 2018, published 2019).

In assay [1] the test system is TNFa. Briefly: TNFa secretion by ELISA, LPS-treated primary human M1 macrophages, Example 5. The class given is cell-based. Here is the method: Primary human PMBC derived macrophages were seeded on day 0 at 3.0E4 cells per well in 96-well microplates (ThermoFisher) in Dulbecco's Modified Eagle Medium (DMEM) (Gibco) supplemented with penicillin-streptomycin (Hyclone) and 10% heat inactivated fetal bovine serum (HI-FBS) (Atlanta Bio) and incubated overnight at 37° C., 5% CO2. On day 1, cells were washed once with 150 uL per well DPBS (Gibco) and treated with 75 uL of: • a. Amino acid free DMEM (US Biologicals) containing a defined custom amino acid concentration based on the mean physiological concentrations in blood based on values published in the Human Metabolome Database (HMDB), with 6 mM glucose, 1 mM sodium pyruvate, 10 mM HEPES, 0.2% primocin (InVivoGen); or • b. The same media described above with supplemental amino acid and amino acid combination treatments at various concentrations. […]
On day 3, the supernatant was collected and immediately frozen in −80° C. freezer. Cells were washed once with 150 uL DPBS and viability was assessed using the WST-8 Cell Proliferation Cytotoxicity Assay (Dojindo). […] Protein levels in supernatant samples were analyzed by ELISA for IL-6 and TNFa using commercially available kits (R&D Systems) according to manufacturer-supplied protocols.

The test system of assay [2] is primary human hepatocytes. Briefly: Intracellular lipid accumulation after 72 h by fluorescence microscopy, PHH model for NASH, Example 2. The class given is cell-based. To be noted: FFA+TNFα; for Lipid Median (median fold change from control): 72 h. Here is the method: (§1) PHH from two healthy human donors (Lonza, TRL) were seeded on day 0 at density of 6e04 cells in 96 well optical microplates (Thermofisher) in hepatocyte plating media (William's E medium, WEM) (Gibco) supplemented with 10% heat-inactivated FBS (Atlanta Bio), 2 mM Glutamax (Gibco), and 0.2% Primocin (InVivoGen) and incubated for 6 hours at 37° C., 5% CO2. After 6 hours, cells were washed twice and incubated overnight at 37° C., 5% CO2 with Hepatocytes defined medium (Corning) supplemented with 2 mM Glutamax (Gibco), and 1× Penicillin/Streptomycin. On day 1, cells were washed twice and incubated for 24 h in the hepatocyte culture media in the same conditions described above.
(§2) On day 2, cells were washed twice with DPBS 1× (Gibco) to remove excess amino acids and maintained in pretreatment media (1×HMDB, a defined custom amino acid concentration based on the mean physiological concentrations in blood, in WEM±supplemental amino acids): • a. Amino acid-free WEM (US Biologicals) supplemented with 11 mM Glucose (Sigma), 0.272 mM Sodium Pyruvate (Sigma), 1× P/S (Gibco) and containing 1×HMDB with no supplemental amino acids; or • b. The same media described above 1×HMDB WEM with supplemental amino acid and amino acid combination treatments at various concentrations. Cells were maintained in the defined media (a. & b.) for 24 hours at 37° C., 5% CO2. The HMDB values are published in the Human Metabolome Database (Wishart D S, Tzur D, Knox C, et al., HMDB: the Human Metabolome Database. Nucleic Acids Res. 2007 January; 35 (Database issue):D521-6. 17202168; which is hereby incorporated by reference in its entirety). Co-Treatment with Free Fatty Acids and Amino Acids Combination
(§3) After 24 h pre-treatment, cells maintained in the pretreatment media±supplemental amino acids (section (a. & b.) described above) were exposed to free fatty acids (FFA) at 250 uM with a ratio of 2:1 (Oleate:Palmitate) supplemented with TNF-α (Thermofisher) at 1 ng/ml. Cells were incubated with the FFAs mixture (FFAs+TNF-α)±supplemental amino acids treatments for 24 hours at 37° C., 5% CO2. After 24 hours incubation, media was removed for cytokine analysis and replaced by fresh media containing the same conditions described above (FFAs mixture±supplemental amino acids treatments). Cells were incubated for an additional 48 hours for a total of 72 hours of FFA and TNF-α stimulation. After 72 hours of incubation, media was removed for albumin and urea analysis and the cells were fixed for nuclei and lipid staining.
After 72 hours, cells were washed twice in 100 ul PBS 1× (Gibco), fixed with 4% Paraformaldehyde, and washed twice with PBS 1× (100 ul). After fixation, lipids were stained with HCS LipidTOX Red Neutral (Thermofisher Scientific) diluted 1000× and nuclei were stained with Hoechst 3342 (Life Technologies) diluted to 4 ug/ml. The LipidTOX™ neutral lipid stain has an extremely high affinity for neutral lipid droplets that was detected by fluorescence microscopy using a high content imager (Molecular Devices). Data was normalized to the cell concentration determined by nuclei count. Images were analyzed and total lipid area was calculated using granularity module in MetaXpress 6 software. Data is reported as median fold change from control, statistical analysis was done using t-Test.

In assay [3] the test system is Human CCL2 (MCP-1). Briefly: MCP1 secretion by ELISA after 24 h, PHH model for NASH, Example 2. To be noted: FFA+TNFα. The class given is cell-based. The protocol: as §1, §2, §3
Human CCL2 (MCP-1) was measured by ELISA (Human […] DuoSet ELISA, R&D Systems) at 1/20 dilution in 1× Reagent Diluent (Reagent Ancillary Kit 2, R&D Systems). MCP1 data in primary human hepatocytes treated with FFA+TNFα+supplemental amino acids was normalized to 1×HMDB WEM+FFA+TNFα baseline. Data is reported as median fold change from control, statistical analysis was done using t-Test.
Background: ELISA stands for enzyme-linked immunosorbent assay.

The subject of assay [4] is Procollagen III. Briefly: Procollagen III secretion by ELISA, TGFβ1-stimulated hepatic stellate cells, Example 4. To be noted: HSC, three donors. The assay is classed as cell-based, human. Here is the method:
Primary human hepatic stellate cells were obtained from Samsara Sciences. Cells from three different donors were grown in Complete HSC Medium to ˜80% confluence in T75 or T150 flasks below passage 10 were seeded into sterile, collagen I coated, 96-well optical plastic microplates (ThermoScientific) and incubated overnight at 37° C., 5% CO2 in a humidified incubator in DMEM with 2% Fetal Bovine Serum and 1% Antimycotic. […] After 24 hours of stimulus, supernatant was removed and used to measure Procollagen III and cells were then washed and fixed with 4% paraformaldehyde for further staining. Procollagen III, an important biomarker of fibrosis was measured by ELISA (Human PCIII Elisa Kit, G-Biosciences) following the manufacturer's recommendations. Fixed cells with 4% paraformaldehyde were permeabilized with 0.1% Triton X-100 then immunostained for alpha SMA and labeled for EdU incorporation.

Turning to `CC(=O)N[C@@H](CS)C(=O)O` [Nac, N-acetylcysteine], the “LPS-stimulated TNFa secretion (in words)” value in assay [1] is “decreased LPS-stimulated IL-6 and TNFa secretion”. Also, the “Lipid Median (median fold change from control)” value in assay [2] (donor 1, 5 mM) was −0.013; in assay [2] (donor 2, 7.5 mM) it was −0.359. Further, the “lipid accumulation (in words)” value is “did not reduce lipid accumulation” in assay [2] (hepatocyte donor 1) and “reduced lipid accumulation but less than the previously described combinations” in assay [2] (hepatocyte donor 2). For the same compound, the “MCP1 secretion (in words)” value in assay [3] (hepatocyte donor 1) and in assay [3] (hepatocyte donor 2) was “reduced MCP1 secretion” each time. Also, the “procollagen III secretion (in words)” value in assay [4] is “decreased procollagen III secretion but at a lower extent than LIRNacCar and LIRQNacSCar”.
